{
  "source": "patent US20190314311A1",
  "about": "“PHARMACEUTICAL COMPOSITION” (JAPAN SCIENCE AND TECHNOLOGY AGENCY, priority 2016, published 2019)",
  "format_in_all_cases": "biochemical",
  "key": {"[1]": {"test_system": "abnormally expanded PolyQ protein", "assay": "in vitro screening assay of abnormally expanded PolyQ protein aggregation by the turbidity method", "settings": "screening of PolyQ aggregation inhibiting compounds", "excerpt": "The present inventors established an in vitro screening assay system capable of conveniently evaluating the aggregation of abnormally expanded PolyQ protein by the turbidity method (U.S. Pat. No. 6,632,616)."}, "Thio-Q62 protein [2]": {"test_system": "Thio-Q62 protein", "assay": "protein aggregation turbidity assay", "settings": "10 μM thio-Q62, PBS, 37° C.; arginine 100, 200 or 400 mM; proline 400 mM; Thio-Q62 alone = 100%", "procedure": "In the subsequent experiments, the protein aggregation turbidity assay was performed by the method described in Non-Patent Document 6. Specifically, it was performed as follows.\n(§1) A solution in which abnormally expanded proteins were dissolved in physiological saline phosphate (PBS) was used as a measurement sample. The solution was incubated at 37° C., and turbidity at 405 nm was measured every 24 hours using a microplate reader “Spectramax Plus plate reader” (Molecular Devices Inc.).\nAs an abnormally expanded PolyQ protein, a Thioredoxin-Q62 (Thio-Q62) fusion protein consisting of Thioredoxin and a PolyQ stretch with 62 glutamines was used.\nAs a control, Thio-Q62 protein alone was incubated in the same manner, and the turbidity was measured every 24 hours.\nAs controls, a solution containing Thio-Q62 protein alone, and a solution containing Thio-Q62 protein and 400 mM proline were incubated in the same manner, respectively, and turbidity was measured after 5 days. […] The relative turbidity (%) of each solution was measured. The turbidity of the solution containing Thio-Q62 protein alone was set to 100%. In the figure, values represent means±SEM (n=3). “*” represents p<0.05, “***” represents p<0.001, “n.s.” represents not significant."}, "Thio-Q62 protein [3]": {"test_system": "Thio-Q62 protein", "assay": "seed-induced polyQ aggregation reaction (turbidity)", "settings": "10 μM Thio-Q62 + seeds, 400 mM arginine or proline, 37° C., 7 days", "procedure": "as §1"}},
  "data": [
    {"molecule": "O=C(O)[C@@H]1CCCN1", "note": "[proline, reference compound]", "values": [
      {"measurement": "PolyQ aggregation inhibitory activity", "setting": "[1]", "result": "no PolyQ aggregation-inhibitory effect"},
      {"measurement": "relative turbidity after 5 days", "setting": "Thio-Q62 protein [2]", "result": "did not exert any anti-aggregation effect"},
      {"measurement": "seed-induced increase in turbidity", "setting": "Thio-Q62 protein [3]", "result": "the effects as observed with arginine was not obtained"}
    ]}
  ]
}
